According to patent US8586505B2 (SDS Biotech K. K., priority 2009, dated 2013):

Columns and labels:
[1] = tested on: Phytophthora infestans; test: whole plant or invertebrate; type: in vivo; settings: in Solanum lycopersicum, 96 h, read-out: Determination of control effect (preventive value)
[2] = tested on: Pseudoperonospora cubensis; test: Test of examining control effect on Pseudoperonospora cubensis (potted cucumber plants); type: in vivo; settings: 96 h, 10% wettable powder adjusted to 125 ppm, 15 ml/pot sprayed on potted cucumber plants one day before spray inoculation, assessed after 1 day wet chamber and 3 days greenhouse, read-out: Determination of control effect (preventive value) on Pseudoperonospora cubensis
Procedure, shortened: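 Cucumber plants (Sagamihanjiro, 2.5-leaf stage) sprayed with 125 ppm compound solution from 10% wettable powder, 15 ml/pot. One day later, spray-inoculated with P. cubensis conidia (1.0×10^4 cells/ml), kept 1 day at 21° C wet, then 3 days in greenhouse. Preventive value derived from lesion area relative to untreated plants.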

[3] = tested on: Tetranychus urticae eggs; test: Test of examining effect on Tetranychus urticae eggs (ovicidal rate); type: in vivo; settings: 144 h, 0.4 ml sprayed, unhatched eggs counted six days later, read-out: Determination (ovicidal rate)
Description: Thereafter, the released female adults were removed. […] Six days later, the number of unhatched eggs was counted, and an ovicidal rate was calculated.

[4] = tested on: Sphaerotheca fuliginea; test: Test of examining control effect on Sphaerotheca fuliginea (potted cucumber plants); type: in vivo; settings: Podosphaera fuliginea, 336 h; 10% wettable powder adjusted to 125 ppm, 15 ml/pot sprayed on potted cucumber plants one day before spray inoculation; assessed after 14 days in greenhouse; read-out: Determination of control effect (preventive value) on Sphaerotheca fuliginea
Procedure, shortened: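 Cucumber plants (Sagamihanjiro, 2nd leaf stage) sprayed with 125 ppm compound (from 10% wettable powder), inoculated one day later with S. fuliginea conidia (1.0×10^5 cells/ml); lesion area scored after 14 days in greenhouse. Preventive value vs untreated; ≥60% high, <60% low control.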

Compound	pest or weed control at 125 ppm [1]	pest or weed control at 125 µg/mL [2]	pest or weed control at 250 ppm [3]	pest or weed control at 125 µg/mL [4]	melting point
CC(CC#Cc1ccc(C(C)C)cc1)Nc1ncnc2sccc12 (stereo not shown) [compound 241]	60 to 100%	60 to 100%	≥ 95%	60 to 100%	
CCCCC(CC#Cc1ccccc1)Nc1ncnc2sccc12 (stereo not shown) [compound 269]	0 to 60%	60 to 100%	60 to 80%	60 to 100%	
Clc1ccc(C#CCCNc2ncnc3sccc23)cc1 [compound 16]	0 to 60%	60 to 100%	60 to 80%	60 to 100%	
CC(CC#Cc1ccc(F)cc1C(F)(F)F)Nc1ncnc2ccccc12 (stereo not shown) [compound 286]	60 to 100%	60 to 100%	80 to 95%	60 to 100%	
Cc1cc(F)ccc1C#CCC(C)Nc1ncnc2sccc12 (stereo not shown) [compound 246]	60 to 100%	60 to 100%	80 to 95%	60 to 100%	
CC(CC#Cc1ccc(F)cc1C(F)(F)F)Nc1ncnc2sccc12 (stereo not shown) [compound 249]	60 to 100%	60 to 100%	≥ 95%	60 to 100%	
CC(CC#Cc1ccc(Cl)cc1C(F)(F)F)Nc1ncnc(C(C)F)c1Cl (stereo not shown) [compound 382]	0 to 60%	60 to 100%	≥ 95%	60 to 100%	
CC(C)(C)c1ccc(C#CCCNc2ncnc3sccc23)cc1 [compound 20]	0 to 60%	60 to 100%	60 to 80%	60 to 100%	
CC(CC#Cc1ccc(S(F)(F)(F)(F)F)cc1)Nc1ncnc2sccc12 (stereo not shown) [compound 238]	60 to 100%	60 to 100%	≥ 95%	60 to 100%	
Fc1cc2ncnc(NCCC#Cc3ccc(Cl)cc3C(F)(F)F)c2cc1F [compound 355]	60 to 100%	60 to 100%	≥ 95%	60 to 100%	
CC(CC#Cc1ccc(C(F)(F)F)cc1F)Nc1ncnc2ccccc12 (stereo not shown) [compound 288]	0 to 60%	60 to 100%	≥ 95%	60 to 100%	
Cc1ccc(C#CCCNc2ncnc3sccc23)cc1 [compound 19]	0 to 60%	60 to 100%	60 to 80%	60 to 100%	
COC(=O)c1cccc(C#CCCNc2ncnc3sccc23)c1 [compound 30]	0 to 60%	60 to 100%	60 to 80%	0 to 60%	163 to 166 °C
CC(CC#Cc1ccc(Cl)cc1C(F)(F)F)Nc1ncnc2sccc12 (stereo not shown) [compound 258]	60 to 100%	60 to 100%	60 to 80%	60 to 100%	
Cc1ccc(C#CCC(C)Nc2ncnc3sccc23)c(C)c1 (stereo not shown) [compound 259]	60 to 100%	60 to 100%	≥ 95%	60 to 100%	
CC(CC#Cc1ccc(S(F)(F)(F)(F)F)cc1)Nc1ncnc2ccccc12 (stereo not shown) [compound 277]	0 to 60%	60 to 100%	≥ 95%	60 to 100%	
CC(CC#Cc1ccc(Cl)cc1C(F)(F)F)Nc1ncnc2cccc(Cl)c12 (stereo not shown) [compound 350]	0 to 60%	60 to 100%	≥ 95%	60 to 100%	
CC(CC#Cc1ccc(Cl)cc1)Nc1ncnc2sccc12 (stereo not shown) [compound 232]	60 to 100%	60 to 100%	80 to 95%	60 to 100%	
CC(CC#Cc1ccc(C(C)C)cc1C(F)(F)F)Nc1ncnc2ccccc12 (stereo not shown) [compound 289]	0 to 60%	60 to 100%	≥ 95%	60 to 100%	
C(#Cc1ccc(C2CCCCC2)cc1)CCNc1ncnc2ccccc12 [compound 109]	0 to 60%	60 to 100%	80 to 95%	60 to 100%	
FC(F)=Cc1ccc(C#CCCNc2ncnc3ccccc23)cc1 [compound 113]	0 to 60%	60 to 100%	≥ 95%	60 to 100%	
Cc1c(Cl)ncnc1NCCC#Cc1ccccc1 [compound 356]	60 to 100%	60 to 100%	80 to 95%	60 to 100%	
CC(CC#Cc1ccccc1Cl)Nc1ncnc2sccc12 (stereo not shown) [compound 231]	60 to 100%	60 to 100%	60 to 80%	60 to 100%	
COc1cccc(C#CCCNc2ncnc3sccc23)c1 [compound 22]	0 to 60%	60 to 100%	60 to 80%	60 to 100%	
CC(CC#Cc1ccc(Cl)cc1C(F)(F)F)Nc1ncnc2ncccc12 (stereo not shown) [compound 384]	0 to 60%	60 to 100%	≥ 95%	60 to 100%	
COc1ccc(C#CCCNc2ncnc3sccc23)cc1OC [compound 24]	0 to 60%	60 to 100%	60 to 80%	60 to 100%	182 to 184 °C
